Test results from patent publication US5721240A, “9-substituted-8-unsubstituted-9-deazaguanines” (BioCryst Pharmaceuticals, Inc., priority 1996, dated 1998).
Where two headings read alike, the source gives them in different places. Each block holds one compound with its values, some of them ahead of it.

Key:
PNP (Calf spleen) = biological target: T1, PNP (Calf spleen) (Bos taurus, UniProt P55859); experiment: in vitro PNP inhibition assay (radiochemical, [14C]-hypoxanthine formation from [14C]-inosine); assay type: biochemical
T1 construct: using calf spleen as the enzyme source; from tissue; host or cells: calf spleen
T1 sequence (P55859 1-289): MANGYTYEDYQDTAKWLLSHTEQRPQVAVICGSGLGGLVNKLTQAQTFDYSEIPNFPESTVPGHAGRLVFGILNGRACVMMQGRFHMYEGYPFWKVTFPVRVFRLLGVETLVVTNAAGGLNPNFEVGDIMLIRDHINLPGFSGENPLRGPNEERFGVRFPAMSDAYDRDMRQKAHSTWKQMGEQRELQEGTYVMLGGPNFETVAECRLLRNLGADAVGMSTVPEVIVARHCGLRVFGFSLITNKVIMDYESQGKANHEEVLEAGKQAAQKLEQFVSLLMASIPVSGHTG

CCRF-CEM Cells = experiment: 2'-deoxyguanosine potentiation assay (cell growth inhibition of CCRF-CEM cells with d-Guo); assay type: cell-based; details: Homo sapiens, + 2'-d-Guanosine 5.62 uM, 72 hours
Protocol: The potentiation of the cell growth inhibitory activity (cytotoxicity) of 2'-deoxyguanosine (d-Guo) by the compounds of the invention is determined as follows: CCRF-CEM cells are grown in RPMI-1640 medium. To suspension cultures of these cells, d-Guo at a fixed concentration (5.62 μM) and the candidate PNP inhibitor at varied concentrations are added and the number of cells are determined in a Coulter counter 24, 48, and 72 hours thereafter. […] This method is similar to that previously used to determine the effectiveness of PNP inhibitors on potentiation of the toxicity of d-Guo [D. A. Shewach et al., Cancer Res., 46, 519 (1986); J. C. Sircar et al., Agents and Actions, 21, 253 (1987)].

plasma inosine = experiment: Effects on blood plasma levels of inosine in rats; assay type: in vivo, Lewis rats; details: i.p.; for Inosine Concentration: rat, 4 mg/kg
Protocol: An effective method of evaluating in vivo effects of PNP inhibitors is to evaluate the level of plasma nucleosides following the administration of inhibitor. In particular, it has been shown that certain PNP inhibitors, which increase blood plasma levels of inosine, were subsequently found to prolong skin allograf survival.
Control groups are used which receive only the vehicle. At specific times after administration, the animals are sacrificed and plasma samples are prepared. The plasma is extracted with cold 0.5 N HClO4 and neutralized with solid NH4 HCO3. After removal of perchlorate salts, the extract is subjected to HPLC on a reversed phase column (Spherisorb ODSI).

[1] = read-out: PNP (Calf spleen) IC50
[2] = 8-amino-substituted comparison compounds
[3] = 8-unsubstituted compounds, calf spleen enzyme, 50 mM phosphate, read-out: PNP (Calf spleen) IC50

SMILES: Nc1nc2c(Cc3ccco3)c[nH]c2c(=O)[nH]1 [Example 2j, 2-Amino-3,5-dihydro-7-(2-furanylmethyl)-4H-pyrrolo-[3,2-d]pyrimidin-4-one]
- IC50 (PNP (Calf spleen); [1]): 310 nM
- IC50 (CCRF-CEM Cells; 8-unsubstituted compounds): 2300 nM

SMILES: Nc1nc2c(Cc3ccsc3)c[nH]c2c(=O)[nH]1 [Example 2l, 2-Amino-3,5-dihydro-7-(3-thienylmethyl)-4H-pyrrolo-[3,2-d]pyrimidin-4-one]
- IC50 (PNP (Calf spleen); [1]): 80 nM
- IC50 (CCRF-CEM Cells; 8-unsubstituted compounds): 2000 nM

SMILES: Nc1nc2c(Cc3ccsc3)c(N)[nH]c2c(=O)[nH]1 [Example 3-Thienyl, reference compound]
- IC50 (CCRF-CEM Cells; [2]): > 20000 nM

SMILES: Nc1nc2c(Cc3ccccc3)c[nH]c2c(=O)[nH]1 [Example 2c, 2-Amino-3,5-dihydro-7-(phenylmethyl)-4H-pyrrolo-[3,2-d]pyrimidin-4-one]
- increase in plasma inosine (plasma inosine; Lewis rats, summary in words): significant increase in plasma inosine
- Inosine Concentration (plasma inosine; 0.50 hrs, Exp 1): 3 μMO
- Inosine Concentration (plasma inosine; 0.50 hrs, Exp 3): 10 μMO
- Inosine Concentration (plasma inosine; 1.0 hrs, Exp 1): 7 μMO
- Inosine Concentration (plasma inosine; 1.0 hrs, Exp 3): 7 μMO
- Inosine Concentration (plasma inosine; 1.5 hrs, Exp 3): 6 μMO
- Inosine Concentration (plasma inosine; 1.5 hrs, Exp 7, listed as SRI 7109, 4 mg/kg): 6 μMO
- Inosine Concentration (plasma inosine; 2.0 hrs, Exp 3): 4 μMO
- Inosine Concentration (plasma inosine; 3.0 hrs, Exp 1): 4 μMO
- Inosine Concentration (plasma inosine; 3.0 hrs, Exp 3): 6 μMO
- Inosine Concentration (plasma inosine; 3.0 hrs, Exp 7, listed as SRI 7109, 4 mg/kg): 6 μMO
- Inosine Concentration (plasma inosine; 4.0 hrs, Exp 2): 3 μMO
- Inosine Concentration (plasma inosine; 5.0 hrs, Exp 2): 2 μMO
- Inosine Concentration (plasma inosine; 6.0 hrs, Exp 2): 0.5 μMO
- Inosine Concentration (plasma inosine; 8.0 hrs, Exp 2): 0.6 μMO
- Inosine Concentration (plasma inosine; 10.0 hrs, Exp 2): 0.3 μMO
- Inosine Concentration (plasma inosine; 24 hrs, Exp 1): 0.3 μMO
- IC50 (CCRF-CEM Cells; 8-unsubstituted compounds): 600 nM

- IC50 (PNP (Calf spleen); [3]): 250 nM
SMILES: Nc1nc2c(Cc3cccc(C(F)(F)F)c3)c[nH]c2c(=O)[nH]1 [Example 2h, 2-Amino-3,5-dihydro-7-(3-trifluoromethylphenylmethyl)-4H-pyrrolo[3,2-d]pyrimidin-4-one]

SMILES: Nc1nc2c(Cc3ccc(Cl)cc3)c[nH]c2c(=O)[nH]1 [Example 2d, 2-Amino-3,5-dihydro-7-(4-chlorophenylmethyl)-4H-pyrrolo[3,2-d]pyrimidin-4-one]
- IC50 (CCRF-CEM Cells; 8-unsubstituted compounds): 700 nM

- IC50 (PNP (Calf spleen); [3]): 2300 nM
SMILES: Nc1nc(O)c2[nH]cc(Cc3ccccc3Cl)c2n1 [Example 2m, 2-Amino-3,5-dihydro-7-(2-chlorophenylmethyl)-4H-pyrrolo[3,2-d]pyrimidin-4-one]

SMILES: Nc1nc2c(Cc3ccccc3)c(N)[nH]c2c(=O)[nH]1 [Phenyl, reference compound]
- IC50 (PNP (Calf spleen)): 7700 nM
- IC50 (CCRF-CEM Cells; [2]): > 15000 nM

- IC50 (PNP (Calf spleen); [3]): 1950 nM
SMILES: Nc1nc2c(Cc3ccccc3O)c[nH]c2c(=O)[nH]1 [Example 3c, 2-amino-3,5-dihydro-7-(2-hydroxyphenylmethyl)-4H-pyrrolo[3,2-d]pyrimidin-4-one]

SMILES: Nc1nc2c(Cc3cccc(O)c3)c[nH]c2c(=O)[nH]1 [Example 3b, 2-amino-3,5-dihydro-7-(3-hydroxyphenylmethyl)-4H-pyrrolo[3,2-d]pyrimidin-4-one]
- IC50 (CCRF-CEM Cells; 8-unsubstituted compounds): 1700 nM

- IC50 (PNP (Calf spleen); [3]): 1000 nM
SMILES: Nc1nc2c(Cc3ccc(Cl)c(Cl)c3)c[nH]c2c(=O)[nH]1 [Example 2i, 2-Amino-3,5-dihydro-7-(3,4-dichlorophenylmethyl)-4H-pyrrolo[3,2-d]pyrimidin-4-one]

SMILES: Nc1nc2c(Cc3cccs3)c[nH]c2c(=O)[nH]1 [Example 2k, 2-Amino-3,5-dihydro-7-(2-thienylmethyl)-4H-pyrrolo-[3,2-d]pyrimidin-4-one]
- IC50 (CCRF-CEM Cells; 8-unsubstituted compounds): 300 nM

SMILES: Nc1nc2c(Cc3cccc(Cl)c3)c[nH]c2c(=O)[nH]1 [Example 1, 2-amino-3,5-dihydro-7-(3-chlorophenylmethyl)-4H-pyrrolo[3,2d-]pyrimidin-4-one]
- IC50 (PNP (Calf spleen)): 140 nM
- IC50 (CCRF-CEM Cells; 8-unsubstituted compounds): 800 nM
